Measured values from US9969701B2, “Salts and co-crystals of lesinurad” (CRYSTAL PHARMATECH, INC., priority 2013, dated 2018).
Values after ≈ are worked out from the molar mass of the structure shown.

Experiments:
[1] = Hygroscopicity assessment by dynamic vapor sorption (DVS); assay type: physicochemical
Procedure: Dynamic Vapor Sorption (DVS) was measured via a SMS (Surface Measurement Systems) DVS Intrinsic. The relative humidity at 25° C. was calibrated against deliquescence point of LiCl, Mg(NO3)2 and KCl. Typical Parameters for DVS test are listed below.
Gas and flow rate: N2, 200 mL/min

[2] = Stability assessment under stress conditions (solid form by XRPD after storage); assay type: physicochemical; settings: 14 days; for Stability under stress conditions: 25° C./60% RH and 40° C./75% RH; for Final form: XRPD
Procedure: Analytical Instrument: Panalytical Empyrean. The X-ray powder diffractogram was determined by mounting a sample of the crystalline material on a Si single crystal low-background holder and spreading out the sample into a thin layer with the aid of a microscope slide. The 2θ position was calibrated against Panalytical 640 Si powder standard. The sample irradiated with X-rays generated by a copper long-fine focus tube operated at 45 kV and 40 mA with a wavelength of Kα1=1.540589 angstroms and Kα2=1.544426 angstroms (Kα1/Kα2 intensity ratio is 0.50). The collimated X-ray source was passed through a programmed divergence slit set at 10 mm and the reflected radiation directed through a 5.5 mm anti-scattering slit. The sample was exposed for 16.3 seconds per 0.013° 2-theta increment (continuous scan mode) over the range 3 degrees to 40 degrees 2-theta in theta-theta mode. The running time was 3 minutes and 57 seconds. The instrument was equipped with an RTMS detector (X'Celerator). Control and data capture was accomplished by means of a Dell Optiplex 780 XP operating with data collector software.
The solid samples were analyzed by […].
The solid samples were analyzed by XRPD.

[3] = Kinetic solubility in bio-relevant media (FaSSIF, FeSSIF), HPLC quantification; assay type: physicochemical; settings: thermodynamic from solid, RT; for solubility at 1 h: time point 1 h; for solubility at 4 h: time point 4 h; for solubility at 24 h: time point 24 h
Procedure: 2. Add 3 mL of bio-relevant medium into each vial.
3. Cap the vials and keep all the suspension samples stirring at RT (room temperature) using a rolling incubator at a rate of 25 r/min.
4. Sample at 1 h, 4 h and 24 h respectively. About 0.6 mL aliquot of the suspension is transferred per time from solubility vial into a centrifuge filtration tube (pore size of 0.45 μm).
5. Centrifuge filtration tubes at a rate of 8500 rpm for 3 minutes at RT, collect 0.2 mL of supernatant for HPLC quantification determination and collect the rest of solution for pH measurement, and separate the solid for XRPD characterization.

gout patients = gout patients who did not get benefit from allopurinol and febuxostat; lesinurad alone; cited from earlier work
[4] = FaSSIF (fasted state simulated intestinal fluid), FaSSIF
[5] = FeSSIF (fed state simulated intestinal fluid), FeSSIF

| SMILES | Water uptake under 80% RH ([1]; 25° C., 80% RH) [%] | Water uptake under 95% RH ([1]; 25° C.) [%] | Stability under stress conditions [2] | Final form ([2]; stored under 25° C./60% RH) | Final form ([2]; stored under 40° C./75% RH) | other results |
| --- | --- | --- | --- | --- | --- | --- |
| O=C([O-])CSc1nnc(Br)n1-c1ccc(C2CC2)c2ccccc12.[Na+] [sodium salt Form A, reference compound] | 25.11 | 32.13 |  |  |  |  |
| O=C(O)CSc1nnc(Br)n1-c1ccc(C2CC2)c2ccccc12.O=C(O)[C@@H]1CCCN1 |  |  | stable | co-crystal | co-crystal |  |
| O=C(O)CSc1nnc(Br)n1-c1ccc(C2CC2)c2ccccc12 [lesinurad freeacid, 2-((5-bromo-4-(4-cyclopropylnaphthalen-1-yl)-4H-1,2,4-triazol-3-yl)thio)acetic acid] |  |  |  |  |  | solubility at 1 h [3, 4]: 2.89 mg/mL (≈ 7.15 mM); solubility at 4 h [3, 4]: 3.58 mg/mL (≈ 8.86 mM); solubility at 24 h [3, 4]: 3 mg/mL (≈ 7.42 mM); solubility at 1 h [3, 5]: 1.51 mg/mL (≈ 3.72 mM); solubility at 4 h [3, 5]: 2.14 mg/mL (≈ 5.29 mM); solubility at 24 h [3, 5]: 1.93 mg/mL (≈ 4.78 mM); Serum levels of uric acid (gout patients): significantly reduced |
| O=C([O-])CSc1nnc(Br)n1-c1ccc(C2CC2)c2ccccc12.O=C([O-])CSc1nnc(Br)n1-c1ccc(C2CC2)c2ccccc12.[Ca+2] [calcium salt Form A] | 0.15 | 0.33 | stable | calcium salt Form A | calcium salt Form A | Hygroscopicity ([1]; 80% RH, 25° C., European pharmacopoeia criteria): almost not hygroscopic; Deliquescence under high humidity conditions ([1]; high humidity): does not deliquesce |
